Results published in patent US7169770B2, “Method of enhancing reproductive performance in sows” (priority 2001, dated 2007).
Like-named read-outs stand apart in the source and are kept apart here.

Tests used:
sows (PIC Line C22) = experiment: Sow feeding trial: L-carnitine and/or chromium tris-picolinate top dress over two parities, reproductive performance; assay type: in vivo; conditions: for First service FR %: first service farrowing rate; for No. of sows Weaned parity 1: Second parity section; for first service farrowing rate: parity 2; for No. of sows Farrowed in parity 1 / No. of sows Farrowed in parity 2 / Number of sows removed from experiment: sow longevity table
Procedure: This experiment was conducted on a commercial 1,500 sow farrow-to-wean operation in central Kansas and used 599 sows (PIC Line C22). Experimental treatments were arranged in a 2×2 factorial with main effects of added L-carnitine (0 or 50 ppm) and chromium tris-picolinate (0 or 200 ppb). Sows were started on test on the first day of breeding. Each sow remained on the same treatment through gestation, lactation, and through a second gestation period (2 parities). During gestation, all sows were fed a grain sorghum-soybean meal-based diet formulated to contain 0.65% lysine, 0.83% Ca, and 0.76% P. In lactation, all sows were fed a grain sorghum-soybean meal based diet formulated to contain 1.10% lysine, 0.90% Ca, and 0.80% P (Table 3). Dietary treatments were provided via a corn-based top dress fed at 30 g/d. The top dress was formulated to provide 90 mg/d and 250 mg/d carnitine in gestation and lactation, respectively. Chromium tris-picolinate was provided at 360 mcg/d and 1,000 mcg/d during gestation and lactation, respectively. These inclusions were calculated to provide 50 mg/kg carnitine (CarniFeed, Lonza Inc., NJ) and 200 mcg/kg chromium (Chromapure, Lonza Inc., NJ) when sows were fed 4 lb/d of the gestation diet and 11 lb/d of the lactation diet. The top dress was added to the top of the feed box between meals in order to be consumed with the rest of the diet. The top dress was color-coded (1% dyed corncobs) by treatment to assure proper distribution of experimental treatments.
At farrowing, the number of pigs born alive, as stillborn, as mummies, and total born were recorded. Total born was the sum of the number of pigs born alive, stillborn, and mummies. Sows were rebred after weaning (15 d lactation) and remained on the same treatment until farrowing a second litter. […] Sows that were bred at the start of the study, but were later found open, were removed from the trial. Procedures and data collection were identical for the second gestation and lactation period. However, dietary treatments were not administered during the second lactation period.
Calculations were made to determine the total number of pigs born, born alive, as stillborns, or as mummies per sow for the two parities. Total number of pigs were calculated using only sows that initially farrowed, then completed the second parity, as well as calculated from all the sows that were actually started on test.
Data were analyzed using the MIXED procedure of SAS. Sow was the experimental unit for the analysis with parity, previous lactation length, and/or week of farrowing as a covariate (Table IV) for total born, number of pigs born alive, mummies, and stillborn. A chi-square statistic was calculated to determine differences among treatments when analyzing percent in estrus and farrowing rate.

sows [1] = conditions: cited from earlier work
sows [2] = conditions: 200 μg/kg of chromium fed to sows; Lindemann et al. (1995b); cited from earlier work
[3] = all sows started on test for two parities
[4] = sows that completed parity one, two parities
[5] = L-carnitine added to gestating sow diets, Musser et al. (1999b)
[6] = 200 μg/kg of chromium, Lindemann et al. (1995b), Hagen et al. (2000)

Compound | % estrus by d 7 (sows (PIC Line C22); First parity) [%] | % estrus by d 18 (sows (PIC Line C22); First parity) [%] | No. of pigs Born alive (sows (PIC Line C22); First parity) | No. of pigs Mummies (sows (PIC Line C22); First parity) | No. of pigs Stiliborn (sows (PIC Line C22); First parity) | No. of pigs Total born (sows (PIC Line C22); First parity) | No. of sows Farrowed (sows (PIC Line C22); First parity) | WEI d (wean to estrus interval) (sows (PIC Line C22); First parity) [days] | First service FR % (sows (PIC Line C22); First parity) [%] | % estrus by d 7 (sows (PIC Line C22); Second parity) [%] | % estrus by d 18 (sows (PIC Line C22); Second parity) [%] | No. of pigs Born alive (sows (PIC Line C22); Second parity) | No. of pigs Mummies (sows (PIC Line C22); Second parity) | No. of pigs Stiliborn (sows (PIC Line C22); Second parity) | No. of pigs Total born (sows (PIC Line C22); Second parity) | No. of sows Bred by d 18 (sows (PIC Line C22); Second parity) | No. of sows Farrowed (sows (PIC Line C22); Second parity) | Percentage of weaned parity 1 sows that farrowed parity 2 (sows (PIC Line C22); Second parity) [%] | WEI (wean to estrus interval) (sows (PIC Line C22); Second parity) | No. of sows Weaned parity 1 (sows (PIC Line C22)) | further results
C[N+](C)(C)C[C@H](O)CC(=O)[O-] [Carnitine, L-carnitine] | 88.6 | 91.5 | 9.8 | 0.26 | 0.98 | 11.4 | 140 | 4.6 | 91.9 | 76.9 | 80.8 | 9.9 | 0.33 | 1.02 | 11.2 | 128 | 104 | 73.9 | 4.7 | 140 | First service FR % (sows (PIC Line C22); Second parity): 81.3%; Total pigs per sow, Born alive (sows (PIC Line C22); [3]): 16.3; Total pigs per sow, Mummies (sows (PIC Line C22); [3]): 0.5; Total pigs per sow, Stillborn (sows (PIC Line C22); [3]): 1.6; Total pigs per sow, Total born (sows (PIC Line C22); [3]): 18.4; first service farrowing rate (sows (PIC Line C22); result in words): did not influence; No. of sows Farrowed in parity 1 (sows (PIC Line C22)): 140; No. of sows Farrowed in parity 2 (sows (PIC Line C22)): 104; Number of sows removed from experiment (sows (PIC Line C22)): 46; Total pigs per sow, Born alive (sows (PIC Line C22); [4]): 17.6; Total pigs per sow, Mummies (sows (PIC Line C22); [4]): 0.5; Total pigs per sow, Stillborn (sows (PIC Line C22); [4]): 1.7; Total pigs per sow, Total born (sows (PIC Line C22); [4]): 19.8; farrowing rate, total number of pigs born or born alive (sows [1]; 50 mg/kg of carnitine during lactation, three experiments, Musser et al. (1999a)): minimal differences; farrowing rate (sows [1]; [5]): no effect; number of pigs born alive in the subsequent parity (sows [1]; [5]): increase; total number of pigs born and born alive (sows [1]; L-carnitine fed during gestation, Musser et al. (1999a)): increases
chromium tris-picolinate | 86.7 | 91.7 | 10.2 | 0.39 | 1.26 | 11.5 | 138 | 4.7 | 95.5 | 81.0 | 82.9 | 9.5 | 0.40 | 1.09 | 11.0 | 127 | 102 | 74.3 | 4.6 | 138 | First service FR % (sows (PIC Line C22); Second parity): 79.7%; Total pigs per sow, Born alive (sows (PIC Line C22); [3]): 16.2; Total pigs per sow, Mummies (sows (PIC Line C22); [3]): 0.7; Total pigs per sow, Stillborn (sows (PIC Line C22); [3]): 2.0; Total pigs per sow, Total born (sows (PIC Line C22); [3]): 18.8; farrowing rate (sows (PIC Line C22); our study, result in words): increases; number born alive (sows (PIC Line C22); our study, result in words): no improvements; number of stillborn pigs per litter (sows (PIC Line C22); our study, result in words): tendencies to increase; first service farrowing rate (sows (PIC Line C22); result in words): did not influence; No. of sows Farrowed in parity 1 (sows (PIC Line C22)): 138; No. of sows Farrowed in parity 2 (sows (PIC Line C22)): 102; Number of sows removed from experiment (sows (PIC Line C22)): 45; Total pigs per sow, Born alive (sows (PIC Line C22); [4]): 16.8; Total pigs per sow, Mummies (sows (PIC Line C22); [4]): 0.6; Total pigs per sow, Stillborn (sows (PIC Line C22); [4]): 2.1; Total pigs per sow, Total born (sows (PIC Line C22); [4]): 19.5; plasma insulin and insulin to glucose ratio (sows [2]): decreased; farrowing rate (sows [1]; [6]): no effects; number of pigs born alive (sows [1]; [6]): increases
